Measured values: patent US8633219B2, “Combination therapy” (Japan Tobacco Inc., priority 2004, dated 2014)

Legend:
HIV-1IIIB = assay: Drug combination anti-HIV-1 cytoprotection assay (MacSynergy II) in CEM-SS cells infected with HIV-1IIIB; format: cell-based; settings: in combination with Compound A; for Antagonism Volume, Result 1 / Synergy Volume, Result 1 / Antagonism Volume, Result 2 / Synergy Volume, Result 2 / Antagonism Volume, Result 3 / Synergy Volume, Result 3: 95% confidence interval; for Antagonism Volume, Result 1 / Synergy Volume, Result 1: assay 1; for Antagonism Volume, Result 2 / Synergy Volume, Result 2: assay 2; for Antagonism Volume, Result 3 / Synergy Volume, Result 3: assay 3; for Mean Antagonism Volume / Mean Synergy Volume: n = 3
Method: This work was performed using the Prichard and Shipman MacSynergy II three-dimensional model for statistical evaluation of combination anti-HIV assays. Using a standard microtiter plate format, each combination assay was performed in CEM-SS T-lymphocytic cells acutely infected with the a laboratory-adapted strain, HIV-1IIIB, and viral growth/inhibition was evaluated by measuring by monitoring virus-induced cytopathic effects (CPE) at the experimental endpoint.
AZT was dissolved in sterile dH2O and the remainder of the control compounds were dissolved in DMSO for analysis in the combination assays. […] CEM-SS cells were passaged in T-75 flasks prior to use in the antiviral assay. On the day preceding the assay, the cells were split 1:2 to assure they were in an exponential growth phase at the time of infection. Total cell and viability quantification was performed using a hemacytometer and trypan blue exclusion.
The virus used for these tests was the lymphocytropic virus strain HIV-1IIIB. This virus was obtained from the NIH AIDS Research and Reference Reagent Program and was grown in CEM-SS cells for the production of stock virus pools. For each assay, a pre-titered aliquot of virus was removed from the freezer (−80° C.) and allowed to thaw slowly to room temperature in a biological safety cabinet. The virus was resuspended and diluted into tissue culture medium such that the amount of virus added to each well in a volume of 50 μl was the amount determined to give between 85 to 95% cell killing at 6 days post-infection.
(§1) The format of the test plate was standardized as follows. Each plate contains cell control wells (cells only), virus control wells (cells plus virus), drug cytotoxicity wells (cells plus drug only), drug colorimetric control wells (drug only), as well as experimental wells (drug plus cells plus virus). The final volume in each well was 200 μl.
At assay termination, the assay plates were stained with the soluble tetrazolium-based dye MTS (CellTiter96 Reagent, Promega) to determine cell viability and quantify compound toxicity. […] At termination of the assay, 20 μl of MTS reagent was added per well. The microtiter plates were then incubated 4-6 hrs at 37° C. for the HIV cytoprotection assay; the incubation intervals were chosen based on empirically determined times for optimal dye reduction. Adhesive plate sealers were used in place of the lids, the sealed plate was inverted several times to mix the soluble formazan product and the plate was read spectrophotometrically at 490/650 nm with a Molecular Devices Vmax plate reader.
Combination antiviral assays were performed with CEM-SS cells utilizing the HIV-1IIIB strain of virus as described above.
The expected additive antiviral protection was subtracted from the experimentally determined antiviral activity at each combination concentration resulting in a positive value (synergy), a negative value (antagonism), or zero (additivity). The results of the combination assays are presented three dimensionally at each combination concentration, yielding a surface of activity extending above (synergy) or below (antagonism) the plane of additivity. The volume of the surface is calculated and expressed as a synergy volume (μM^2%) calculated at the 95% confidence interval.
Slightly synergistic activity and highly synergistic activity have been defined as yielding synergy volumes of 50-100 μM^2% and >100 μM^2%, respectively.

CEM-SS cells = assay: Cellular cytotoxicity by MTS staining in the combination assay; format: cell-based; settings: combinations with other anti-HIV agents; Compound A 4 nM high-test concentration
Method: as §1, with “μl. Samples were evaluated with triplicate measurements using a checkerboard dilution scheme; […]; antiviral efficacy and cellular cytotoxicity were monitored by MTS staining at the experimental endpoint.” for “μl.”
At assay termination, the assay plates were stained with the soluble tetrazolium-based dye MTS (CellTiter96 Reagent, Promega) to determine cell viability and quantify compound toxicity. MTS is metabolized by the mitochondrial enzymes of metabolically active cells to yield a soluble formazan product, allowing the rapid quantitative analysis of cell viability and compound cytotoxicity. […] The microtiter plates were then incubated 4-6 hrs at 37° C. for the HIV cytoprotection assay; the incubation intervals were chosen based on empirically determined times for optimal dye reduction. Adhesive plate sealers were used in place of the lids, the sealed plate was inverted several times to mix the soluble formazan product and the plate was read spectrophotometrically at 490/650 nm with a Molecular Devices Vmax plate reader.

| SMILES | Antagonism Volume, Result 1 (HIV-1IIIB) [μM^2%] | Synergy Volume, Result 1 (HIV-1IIIB) [μM^2%] | Antagonism Volume, Result 2 (HIV-1IIIB) [μM^2%] | Synergy Volume, Result 2 (HIV-1IIIB) [μM^2%] | Antagonism Volume, Result 3 (HIV-1IIIB) [μM^2%] | Synergy Volume, Result 3 (HIV-1IIIB) [μM^2%] | Mean Antagonism Volume (HIV-1IIIB) [μM^2%] | Mean Synergy Volume (HIV-1IIIB) [μM^2%] | synergistic cytotoxicity (CEM-SS cells) |
| --- | --- | --- | --- | --- | --- | --- | --- | --- | --- |
| CC(C)(C)NC(=O)[C@@H]1CN(Cc2cccnc2)CCN1C[C@@H](O)C[C@@H](Cc1ccccc1)C(=O)N[C@H]1c2ccccc2C[C@H]1O [IDV, indinavir] | −7 | 57 | −23 | 13 | −26 | 10 | −18.7 | 26.7 | – |
| Cc1c(O)cccc1C(=O)N[C@@H](CSc1ccccc1)[C@H](O)CN1C[C@H]2CCCC[C@H]2C[C@H]1C(=O)NC(C)(C)C [NFV, nelfinavir] | −3 | 44 | −3 | 38 | −46 | 20 | −17.3 | 34. | – |
| C[C@H](Cn1cnc2c(N)ncnc21)OCP(=O)(O)O [PMPA, tenofovir] | −23 | 29 | −4 | 43 | −60 | 13 | −29.0 | 28.3 | – |
| O=C1Nc2ccc(Cl)cc2[C@@](C#CC2CC2)(C(F)(F)F)O1 [EFV, efavirenz] | −9 | 26 | 0 | 54 | −7 | 26 | −5.3 | 35.3 | – |
| COc1cc2c(cc1Cc1cccc(Cl)c1F)c(=O)c(C(=O)O)cn2[C@H](CO)C(C)C [Compound A, (S)-6-(3-Chloro-2-fluorobenzyl)-1-(1-hydroxymethyl-2-methylpropyl)-7-methoxy-4-oxo-1,4-dihydroquinoline-3-carboxylic acid] | – | – | – | – | – | – | – | – | no evidence of synergistic cytotoxicity |
| Cc1cn([C@H]2C[C@H](N=[N+]=[N-])[C@@H](CO)O2)c(=O)[nH]c1=O [AZT, zidovudine] | −21 | 46 | −44 | 19 | −23 | 57 | −29.3 | 40.7 | – |
